Laboratory results: patent US9073862B2, “Substituted 2-oxy-quinoline-3-carboxamides as KCNQ2/3 modulators” (Grünenthal GmbH, priority 2010, dated 2015)

Target: T1, KCNQ2/3 channels (Homo sapiens, UniProt O43525+O43526)
T1 construct: expressed in transfected cells; host or cells: CHO-K1
Test: Fluorescence assay using a voltage sensitive dye (fluorimetry)
Assay type: cell-based
Conditions: CHO-K1 cells expressing KCNQ2/3 channels; for Emax: relative to retigabine = 100%, read-out: Fluorimetry % efficacy (retigabine = 100%)
Protocol: Method I. Fluorescence Assay Using a Voltage Sensitive Dye (Fluorimetry)
[…] CHO-K1 cells expressing KCNQ2/3 channels are cultivated adherently at 37° C., 5% CO2 and 95% humidity in cell culture bottles (e.g. 80 cm^2 TC flasks, Nunc) with DMEM-high glucose (Sigma Aldrich, D7777) including 10% FCS (PAN Biotech, e.g. 3302-P270521) or alternatively MEM Alpha Medium (1×, liquid, Invitrogen, #22571), 10% fetal calf serum (FCS) (Invitrogen, #10270-106, heat-inactivated) and the necessary selection antibiotics.
Before being sown out for the measurements, the cells are washed with 1×DPBS buffer Ca^2+/Mg^2+-free (e.g. Invitrogen, #14190-094) and detached from the bottom of the culture vessel by using Accutase (PAA Laboratories, #L11-007) (incubation with Accutase for 15 min at 37° C.). The cell number is determined using a CASY™ cell counter (TCC, Schärfe System). Depending on the optimal density for each individual cell line, 20,000-30,000 cells/well/100 μl are seeded onto 96-well Corning™ CellBIND™ assay plates (Flat Clear Bottom Black Polystyrene Microplates, #3340). Freshly seeded cells are then left to settle for one hour at room temperature, followed by incubation for 24 hours at 37° C., 5% CO2 and 95% humidity.
The voltage-sensitive fluorescent dye from the Membrane Potential Assay Kit (Red™ Bulk format part R8123 for FLIPR, MDS Analytical Technologies™) is prepared by dissolving the contents of one vessel Membrane Potential Assay Kit Red Component A in 200 ml of extracellular buffer (ES buffer, 120 mM NaCl, 1 mM KCl, 10 mM HEPES, 2 mM CaCl2, 2 mM MgCl2, 10 mM glucose; pH 7.4). After removal of the nutrient medium, the cells are washed once with 200 μl of ES buffer, then loaded for 45 min at room temperature in 100 μl of dye solution in the dark.
Fluorescence measurements are carried out in a BMG Labtech FLUOstar™, BMG Labtech NOVOstar™ or BMG Labtech POLARstar™ instrument (525 nm excitation, 560 nm emission, Bottom Read mode). After incubation with the dye, 50 μl of the test substances in the desired concentrations, or 50 μl of ES buffer for control purposes, are applied to the wells of the assay plate and incubated for 30 min at room temperature while being shielded from light. The fluorescence intensity of the dye is then measured for 5 min and the fluorescence value F1 of each well is thus determined at a given, constant time. 15 μl of a KCl solution are then added to each well (final concentration of potassium ions 92 mM). The change in fluorescence intensity is subsequently monitored until all the relevant values have been obtained (mainly 5-30 min). At a given time post KCl application, a fluorescence value F2 is determined, in this case at the time of the fluorescence peak.
For calculation, the fluorescence intensity F2 is corrected for the fluorescence intensity F1, and the activity (ΔF/F) of the target compound on the potassium channel is determined as follows:
In order to determine whether a substance has agonistic activity,
[formula] can be related to
[formula] of control wells.
[formula] is determined by adding to the well only the buffer solution instead of the test substance, determining the value F1K of the fluorescence intensity, adding the potassium ions as described above, and measuring a value F2K of the fluorescence intensity. F2K and F1K are then calculated as follows: […]
A substance has an agonistic activity on the potassium channel if
[formula] is greater than
Independently of the comparison of
[formula] it is possible to conclude that a target compound has agonistic activity if
[formula] increases dose dependently.
Calculations of EC50 and IC50 values are carried out with the aid of ‘Prism v4.0’ software (Graph Pad Software™).

| EC50 [µM] | Emax [%] | SMILES |
| --- | --- | --- |
| 0.34 | 62 | COc1nc2cc(F)ccc2c(C)c1C(=O)NCc1cccc(F)c1 [Example 18, 7-fluoro-N-[(3-fluorophenyl)-methyl]-2-methoxy-4-methyl-quinoline-3-carboxylic acid amide] |
| 0.106 | 181 | CCOc1nc2cc(F)c(F)cc2c(OC)c1C(=O)NCc1cccc(F)c1 [Example 15, 2-ethoxy-6,7-difluoro-N-[(3-fluorophenyl)-methyl]-4-methoxy-quinoline-3-carboxylic acid amide] |
| 0.315 | 96 | COc1nc2cc(F)c(F)cc2c(C)c1C(=O)NCc1cccc(F)c1 [Example 48, 6,7-difluoro-N-[(3-fluorophenyl)-methyl]-2-methoxy-4-methyl-quinoline-3-carboxylic acid amide] |
| – | 43 | COc1nc2cc(F)cc(F)c2c(C)c1C(=O)NCc1cccc(F)c1 [Example 47, 5,7-difluoro-N-[(3-fluorophenyl)-methyl]-2-methoxy-4-methyl-quinoline-3-carboxylic acid amide] |
| 0.052 | 164 | Cc1c(C(=O)NCc2ccc(F)cc2)c(OC(C)C)nc2cc(C(F)(F)F)ccc12 [Example 11, N-[(4-fluorophenyl)-methyl]-2-isopropoxy-4-methyl-7-(trifluoromethyl)-quinoline-3-carboxylic acid amide] |
| 0.067 | 71 | COc1nc2cc(C(F)(F)F)ccc2c(C)c1C(=O)NCc1cccc(C)c1 [Example 21, 2-methoxy-4-methyl-N-(m-tolyl-methyl)-7-(trifluoromethyl)-quinoline-3-carboxylic acid amide] |
| 0.143 | 74 | COc1nc2cc(C#N)ccc2c(C)c1C(=O)NCc1ccc(F)cc1 [Example 38, 7-cyano-N-[(4-fluorophenyl)-methyl]-2-methoxy-4-methyl-quinoline-3-carboxylic acid amide] |
| 0.05 | 214 | CCOc1nc2cc(C(F)(F)F)ccc2c(C)c1C(=O)NCCCC(C)(C)C [Example 30, N-(4,4-dimethyl-pentyl)-2-ethoxy-4-methyl-7-(trifluoromethyl)-quinoline-3-carboxylic acid amide] |
| 0.084 | 173 | CCOc1nc2cc(C(F)(F)F)ccc2c(C)c1C(=O)NCCCC(C)C [Example 27, 2-ethoxy-4-methyl-N-(4-methyl-pentyl)-7-(trifluoromethyl)-quinoline-3-carboxylic acid amide] |
| 0.205 | 67 | CCOc1nc2ccccc2c(C(F)(F)F)c1C(=O)NCc1cccc(F)c1 [Example 52, 2-ethoxy-N-[(3-fluorophenyl)-methyl]-4-(trifluoromethyl)-quinoline-3-carboxylic acid amide] |
| 0.108 | 84 | CC(C)Oc1nc2ccccc2c(C(F)(F)F)c1C(=O)NCc1cccc(F)c1 [Example 53, N-[(3-fluorophenyl)-methyl]-2-isopropoxy-4-(trifluoromethyl)-quinoline-3-carboxylic acid amide] |
| 0.218 | 147 | COc1nc2cc(F)c(F)cc2c(OC)c1C(=O)NCc1cccc(F)c1 [Example 17, 6,7-difluoro-N-[(3-fluorophenyl)-methyl]-2,4-dimethoxy-quinoline-3-carboxylic acid amide] |
| 0.075 | 155 | CCOc1nc2cc(C(F)(F)F)ccc2c(OC)c1C(=O)NCc1ccc(F)cc1 [Example 14, 2-ethoxy-N-[(4-fluorophenyl)-methyl]-4-methoxy-7-(trifluoromethyl)-quinoline-3-carboxylic acid amide] |
| 0.081 | 184 | COc1nc2cc(C(F)(F)F)ccc2c(C)c1C(=O)NCCCC(C)C [Example 28, 2-methoxy-4-methyl-N-(4-methyl-pentyl)-7-(trifluoromethyl)-quinoline-3-carboxylic acid amide] |
| 0.261 | 85 | COc1nc2cc(C#N)ccc2c(C)c1C(=O)NCc1cccc(F)c1 [Example 37, 7-cyano-N-[(3-fluorophenyl)-methyl]-2-methoxy-4-methyl-quinoline-3-carboxylic acid amide] |
| 0.092 | 99 | COc1nc2cc(C(F)(F)F)ccc2c(C)c1C(=O)NCc1ccc(C)c(F)c1 [Example 19, N-[(3-fluoro-4-methyl-phenyl)-methyl]-2-methoxy-4-methyl-7-(trifluoromethyl)-quinoline-3-carboxylic acid amide] |
| – | 10 | COc1nc2cc(C(F)(F)F)ccc2c(C)c1C(=O)NCc1cccc(F)c1OC [Example 39, N-[(3-fluoro-2-methoxy-phenyl)-methyl]-2-methoxy-4-methyl-7-(trifluoromethyl)-quinoline-3-carboxylic acid amide] |
| 0.229 | 70 | COc1nc2c(F)c(F)ccc2c(C)c1C(=O)NCc1cccc(F)c1 [Example 49, 7,8-difluoro-N-[(3-fluorophenyl)-methyl]-2-methoxy-4-methyl-quinoline-3-carboxylic acid amide] |
| 0.064 | 175 | CCOc1nc2cc(C(F)(F)F)ccc2c(C)c1C(=O)NCc1cccs1 [Example 2, 2-ethoxy-4-methyl-N-(thiophene-2-yl-methyl)-7-(trifluoromethyl)-quinoline-3-carboxylic acid amide] |
| 1.54 | 140 | COc1ccc(F)cc1CNC(=O)c1c(OC)nc2cc(C(F)(F)F)ccc2c1C [Example 41, N-[(5-fluoro-2-methoxy-phenyl)-methyl]-2-methoxy-4-methyl-7-(trifluoromethyl)-quinoline-3-carboxylic acid amide] |
| 2.06 | 87 | COc1nc2cc(C(F)(F)F)ccc2c(C)c1C(=O)NCc1ccc(O)c(F)c1 [Example 45, N-[(3-fluoro-4-hydroxy-phenyl)-methyl]-2-methoxy-4-methyl-7-(trifluoromethyl)-quinoline-3-carboxylic acid amide] |
| – | 40 | COc1nc2ccccc2c(C(F)(F)F)c1C(=O)NCc1cccc(F)c1 [Example 51, N-[(3-fluorophenyl)-methyl]-2-methoxy-4-(trifluoromethyl)-quinoline-3-carboxylic acid amide] |
| – | 15 | COc1cc(F)cc(CNC(=O)c2c(OC)nc3cc(C(F)(F)F)ccc3c2C)c1 [Example 40, N-[(3-fluoro-5-methoxy-phenyl)-methyl]-2-methoxy-4-methyl-7-(trifluoromethyl)-quinoline-3-carboxylic acid amide] |
| 0.079 | 173 | COc1nc2cc(C(F)(F)F)ccc2c(C)c1C(=O)NCc1cc(F)ccc1O [Example 44, N-[(5-fluoro-2-hydroxy-phenyl)-methyl]-2-methoxy-4-methyl-7-(trifluoromethyl)-quinoline-3-carboxylic acid amide] |
| – | 9 | COc1nc2cc(C(F)(F)F)ccc2c(C)c1C(=O)NCc1cc(O)cc(F)c1 [Example 43, N-[(3-fluoro-5-hydroxy-phenyl)-methyl]-2-methoxy-4-methyl-7-(trifluoromethyl)-quinoline-3-carboxylic acid amide] |
| 0.062 | 73 | COc1nc2cc(C(F)(F)F)ccc2c(C)c1C(=O)NCc1ccc(F)c(C)c1 [Example 23, N-[(4-fluoro-3-methyl-phenyl)-methyl]-2-methoxy-4-methyl-7-(trifluoromethyl)-quinoline-3-carboxylic acid amide] |
